Source: ChEMBL document CHEMBL3232733, “Design, synthesis, crystallographic studies, and preliminary biological appraisal of new substituted triazolo[4,3-b]pyridazin-8-amine derivatives as tankyrase inhibitors” (J Med Chem, 2014)
One block for each molecule: values may come before it. Activity calls are given as the source filed them. The rule behind the calls is not given here.

Assays:
DLD-1 = assay: Cytotoxicity against human DLD1 cells assessed as growth inhibition at 1 to 20 uM measured on day 10 by crystal violet staining; type: functional, cell-based
[1] = biological target: T1, Protein mono-ADP-ribosyltransferase TIPARP (Homo sapiens) (UniProt Q7Z3E1); settings: 10 uM
T1 sequence (whole entry): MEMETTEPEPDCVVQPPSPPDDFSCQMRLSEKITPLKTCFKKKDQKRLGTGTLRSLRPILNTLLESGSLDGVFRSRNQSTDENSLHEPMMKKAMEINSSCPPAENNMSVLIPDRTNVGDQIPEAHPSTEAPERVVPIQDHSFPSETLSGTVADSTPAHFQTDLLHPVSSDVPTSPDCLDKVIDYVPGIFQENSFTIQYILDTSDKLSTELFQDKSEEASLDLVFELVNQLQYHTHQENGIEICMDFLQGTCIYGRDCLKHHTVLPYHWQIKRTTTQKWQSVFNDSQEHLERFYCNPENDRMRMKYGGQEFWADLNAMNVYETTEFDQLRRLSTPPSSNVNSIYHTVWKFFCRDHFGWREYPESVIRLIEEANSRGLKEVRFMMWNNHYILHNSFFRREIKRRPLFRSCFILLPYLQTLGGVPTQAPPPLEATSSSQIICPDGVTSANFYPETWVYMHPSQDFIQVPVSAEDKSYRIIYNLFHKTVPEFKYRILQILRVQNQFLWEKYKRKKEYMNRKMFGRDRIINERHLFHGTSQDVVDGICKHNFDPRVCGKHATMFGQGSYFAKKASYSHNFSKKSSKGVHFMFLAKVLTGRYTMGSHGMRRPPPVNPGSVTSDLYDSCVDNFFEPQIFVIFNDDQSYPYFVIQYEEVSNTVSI
Description: Inhibition of recombinant human PARP-7 at 10 uM relative to control

[2] = biological target: Poly [ADP-ribose] polymerase 1 (Homo sapiens, UniProt P09874); assay: Inhibition of recombinant human PARP-1
Chain of Poly [ADP-ribose] polymerase 1 (P09874 whole entry): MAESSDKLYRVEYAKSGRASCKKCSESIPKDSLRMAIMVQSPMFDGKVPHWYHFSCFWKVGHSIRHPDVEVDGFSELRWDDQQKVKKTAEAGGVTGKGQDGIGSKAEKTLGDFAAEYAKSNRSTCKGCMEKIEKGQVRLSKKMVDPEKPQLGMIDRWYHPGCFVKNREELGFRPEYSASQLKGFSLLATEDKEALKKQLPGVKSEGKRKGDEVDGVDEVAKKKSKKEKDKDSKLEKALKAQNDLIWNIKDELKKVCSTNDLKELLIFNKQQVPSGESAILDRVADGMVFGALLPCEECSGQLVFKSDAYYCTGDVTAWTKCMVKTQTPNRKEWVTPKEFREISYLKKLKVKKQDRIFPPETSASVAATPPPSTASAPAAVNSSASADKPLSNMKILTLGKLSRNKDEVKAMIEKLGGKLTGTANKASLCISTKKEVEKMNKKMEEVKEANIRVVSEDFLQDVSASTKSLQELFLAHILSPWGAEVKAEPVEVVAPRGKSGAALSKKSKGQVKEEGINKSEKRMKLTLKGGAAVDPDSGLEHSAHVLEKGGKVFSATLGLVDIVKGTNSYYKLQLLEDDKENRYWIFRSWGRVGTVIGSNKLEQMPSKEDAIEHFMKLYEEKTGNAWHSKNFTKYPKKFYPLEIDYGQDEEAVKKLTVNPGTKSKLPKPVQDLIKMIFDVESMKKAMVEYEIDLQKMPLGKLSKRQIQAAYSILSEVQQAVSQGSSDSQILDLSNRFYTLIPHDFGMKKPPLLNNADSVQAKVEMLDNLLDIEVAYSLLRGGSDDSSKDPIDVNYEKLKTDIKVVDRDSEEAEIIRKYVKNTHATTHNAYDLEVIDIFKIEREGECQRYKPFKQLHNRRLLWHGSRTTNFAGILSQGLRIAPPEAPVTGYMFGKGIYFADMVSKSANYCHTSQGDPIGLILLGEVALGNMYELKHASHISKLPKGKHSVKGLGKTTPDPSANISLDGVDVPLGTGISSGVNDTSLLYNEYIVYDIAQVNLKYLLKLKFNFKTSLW

[3] = biological target: Protein mono-ADP-ribosyltransferase PARP6 (Homo sapiens) (UniProt Q2NL67); settings: 10 uM
Chain of Protein mono-ADP-ribosyltransferase PARP6 (Homo sapiens) (Q2NL67 whole entry): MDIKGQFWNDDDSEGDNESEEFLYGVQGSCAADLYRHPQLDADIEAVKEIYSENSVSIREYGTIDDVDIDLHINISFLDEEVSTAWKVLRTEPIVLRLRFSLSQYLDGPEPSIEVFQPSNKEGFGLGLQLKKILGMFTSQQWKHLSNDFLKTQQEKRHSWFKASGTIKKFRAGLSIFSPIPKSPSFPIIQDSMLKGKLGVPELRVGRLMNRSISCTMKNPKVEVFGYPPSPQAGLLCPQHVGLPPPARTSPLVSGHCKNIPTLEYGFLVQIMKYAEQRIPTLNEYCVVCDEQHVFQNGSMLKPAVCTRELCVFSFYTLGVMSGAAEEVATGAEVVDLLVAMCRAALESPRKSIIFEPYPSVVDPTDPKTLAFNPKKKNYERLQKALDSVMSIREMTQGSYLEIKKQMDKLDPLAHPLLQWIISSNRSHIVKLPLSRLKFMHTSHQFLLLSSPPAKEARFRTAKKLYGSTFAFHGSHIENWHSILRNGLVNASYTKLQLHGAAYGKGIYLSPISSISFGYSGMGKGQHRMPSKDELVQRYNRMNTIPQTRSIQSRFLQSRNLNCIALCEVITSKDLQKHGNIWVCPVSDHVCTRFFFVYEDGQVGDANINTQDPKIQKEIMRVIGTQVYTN
Description: Inhibition of recombinant human PARP-6 at 10 uM relative to control

[4] = biological target: T2, Protein mono-ADP-ribosyltransferase PARP10 (Homo sapiens) (UniProt Q53GL7); settings: 10 uM
T2 sequence (whole entry): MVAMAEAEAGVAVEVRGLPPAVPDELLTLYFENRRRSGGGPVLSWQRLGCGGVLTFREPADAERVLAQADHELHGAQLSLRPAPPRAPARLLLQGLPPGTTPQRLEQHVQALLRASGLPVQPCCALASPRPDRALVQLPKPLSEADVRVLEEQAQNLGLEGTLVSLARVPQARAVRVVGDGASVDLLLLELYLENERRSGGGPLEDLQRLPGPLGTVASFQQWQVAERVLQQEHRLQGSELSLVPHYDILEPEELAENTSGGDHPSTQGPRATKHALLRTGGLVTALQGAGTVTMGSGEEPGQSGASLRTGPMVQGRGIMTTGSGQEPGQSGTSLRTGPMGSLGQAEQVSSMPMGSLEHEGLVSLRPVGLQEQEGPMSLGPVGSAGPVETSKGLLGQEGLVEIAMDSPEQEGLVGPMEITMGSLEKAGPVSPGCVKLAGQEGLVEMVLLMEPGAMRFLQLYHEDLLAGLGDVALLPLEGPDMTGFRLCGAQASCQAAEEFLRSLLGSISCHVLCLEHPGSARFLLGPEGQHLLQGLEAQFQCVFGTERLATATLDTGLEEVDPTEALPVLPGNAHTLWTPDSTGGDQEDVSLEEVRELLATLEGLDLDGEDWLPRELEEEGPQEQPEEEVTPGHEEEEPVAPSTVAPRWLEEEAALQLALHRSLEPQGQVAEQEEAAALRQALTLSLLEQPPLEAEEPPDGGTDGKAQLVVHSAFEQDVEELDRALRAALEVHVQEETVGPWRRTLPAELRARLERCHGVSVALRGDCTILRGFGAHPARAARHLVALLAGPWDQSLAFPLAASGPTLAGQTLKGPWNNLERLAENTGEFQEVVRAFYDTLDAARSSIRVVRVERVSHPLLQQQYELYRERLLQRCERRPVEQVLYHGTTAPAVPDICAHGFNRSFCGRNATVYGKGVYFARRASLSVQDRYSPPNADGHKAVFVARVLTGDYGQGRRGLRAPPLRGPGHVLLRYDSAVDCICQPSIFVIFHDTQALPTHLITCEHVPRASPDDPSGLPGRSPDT
Description: Inhibition of recombinant human PARP-10 at 10 uM relative to control

[5] = biological target: T3, Protein mono-ADP-ribosyltransferase PARP3 (Homo sapiens) (UniProt Q9Y6F1); settings: 10 uM
T3 sequence (whole entry): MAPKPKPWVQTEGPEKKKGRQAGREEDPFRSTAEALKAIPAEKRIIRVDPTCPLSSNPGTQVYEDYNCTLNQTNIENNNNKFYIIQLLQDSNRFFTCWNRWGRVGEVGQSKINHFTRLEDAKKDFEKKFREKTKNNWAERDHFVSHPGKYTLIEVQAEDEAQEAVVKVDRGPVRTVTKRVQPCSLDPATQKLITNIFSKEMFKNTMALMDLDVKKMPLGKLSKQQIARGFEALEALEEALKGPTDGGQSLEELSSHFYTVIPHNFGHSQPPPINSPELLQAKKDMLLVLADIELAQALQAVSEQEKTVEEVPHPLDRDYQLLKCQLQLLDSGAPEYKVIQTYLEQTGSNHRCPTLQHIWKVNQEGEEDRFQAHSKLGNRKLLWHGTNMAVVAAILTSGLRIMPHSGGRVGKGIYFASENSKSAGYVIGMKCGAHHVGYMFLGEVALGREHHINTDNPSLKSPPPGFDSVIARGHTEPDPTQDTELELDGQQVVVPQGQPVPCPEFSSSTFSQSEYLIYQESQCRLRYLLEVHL
Description: Inhibition of recombinant human PARP-3 at 10 uM relative to control

[6] = biological target: T4, Protein mono-ADP-ribosyltransferase PARP8 (Homo sapiens) (UniProt Q8N3A8); settings: 10 uM
T4 sequence (whole entry): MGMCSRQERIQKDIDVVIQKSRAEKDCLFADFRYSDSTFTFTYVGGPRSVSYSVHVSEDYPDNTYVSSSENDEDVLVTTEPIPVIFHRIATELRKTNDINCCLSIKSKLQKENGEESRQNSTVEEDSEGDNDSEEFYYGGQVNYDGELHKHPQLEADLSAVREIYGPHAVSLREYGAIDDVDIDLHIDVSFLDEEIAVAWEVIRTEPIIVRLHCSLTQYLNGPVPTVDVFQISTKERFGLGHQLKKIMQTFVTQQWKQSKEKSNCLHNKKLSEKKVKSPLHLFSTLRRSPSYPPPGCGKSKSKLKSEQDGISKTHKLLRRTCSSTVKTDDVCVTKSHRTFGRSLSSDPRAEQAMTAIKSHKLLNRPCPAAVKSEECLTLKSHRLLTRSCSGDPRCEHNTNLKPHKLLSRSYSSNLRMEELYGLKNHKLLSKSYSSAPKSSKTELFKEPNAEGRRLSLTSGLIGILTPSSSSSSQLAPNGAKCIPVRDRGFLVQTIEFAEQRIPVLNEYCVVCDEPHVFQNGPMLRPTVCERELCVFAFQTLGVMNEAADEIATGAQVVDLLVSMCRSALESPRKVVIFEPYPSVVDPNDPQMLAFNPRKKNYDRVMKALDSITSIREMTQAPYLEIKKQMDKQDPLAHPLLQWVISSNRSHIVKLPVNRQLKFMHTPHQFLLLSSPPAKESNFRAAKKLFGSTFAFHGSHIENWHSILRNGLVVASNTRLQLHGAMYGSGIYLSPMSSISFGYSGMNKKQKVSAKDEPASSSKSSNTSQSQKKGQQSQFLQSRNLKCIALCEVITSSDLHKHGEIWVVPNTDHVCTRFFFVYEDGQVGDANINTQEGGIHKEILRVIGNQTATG
Description: Inhibition of recombinant human PARP-8 at 10 uM relative to control

[7] = biological target: Poly [ADP-ribose] polymerase 2 (Homo sapiens, UniProt Q9UGN5); assay: Inhibition of recombinant human PARP-2
Chain of Poly [ADP-ribose] polymerase 2 (Q9UGN5 whole entry): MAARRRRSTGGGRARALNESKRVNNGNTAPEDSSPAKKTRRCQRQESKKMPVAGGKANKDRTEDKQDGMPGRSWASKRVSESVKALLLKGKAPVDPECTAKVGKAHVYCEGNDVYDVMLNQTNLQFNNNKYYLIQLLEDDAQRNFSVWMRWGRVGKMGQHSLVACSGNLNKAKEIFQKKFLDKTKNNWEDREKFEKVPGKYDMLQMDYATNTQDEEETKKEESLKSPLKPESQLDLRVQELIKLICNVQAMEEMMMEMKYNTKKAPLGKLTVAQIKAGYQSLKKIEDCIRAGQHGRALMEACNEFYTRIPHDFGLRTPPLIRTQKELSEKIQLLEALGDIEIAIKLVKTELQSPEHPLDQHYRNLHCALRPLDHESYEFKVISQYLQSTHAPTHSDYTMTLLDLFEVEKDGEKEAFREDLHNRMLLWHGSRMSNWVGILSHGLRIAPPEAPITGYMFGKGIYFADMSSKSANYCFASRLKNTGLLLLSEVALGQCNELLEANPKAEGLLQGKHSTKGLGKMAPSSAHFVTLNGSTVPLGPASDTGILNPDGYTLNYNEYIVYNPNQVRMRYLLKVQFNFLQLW

Compound: Oc1nc(-c2ccc(C(F)(F)F)cc2)nc2c1CSCC2
- growth inhibition (GI) (DLD-1): Active

Compound: O=C(Nc1cccc2cccnc12)c1ccc(N2C(=O)[C@@H]3[C@H](C2=O)[C@@H]2C=C[C@H]3C2)cc1
- growth inhibition (GI) (DLD-1): Active

- inhibition [1]: inactive
- IC50 [2]: > 10 µM
- inhibition [3]: inactive
- inhibition [4]: inactive
- inhibition [5]: inactive
- inhibition [6]: inactive
- IC50 [7]: > 10 µM
Compound: Cc1cc(NCCc2ccc(O)cc2)c2nncn2n1
- growth inhibition (GI) (DLD-1): Active

- inhibition [4]: > 70%
Compound: O=C(c1cc(Cc2n[nH]c(=O)c3ccccc23)ccc1F)N1CCN(C(=O)C2CC2)CC1
